Measured values from patent US6395740B1, “Calcitonin mimetics” (ZymoGenetics, Inc., priority 1997, dated 2002).

Target: T1, human calcitonin receptor (Homo sapiens, UniProt P30988)
T1 construct: expressed in transfected cells; host or cells: BHK (baby hamster kidney) cells, line Hollex-2 (Hollex 1 in the general description)
T1 sequence (P30988 25-474): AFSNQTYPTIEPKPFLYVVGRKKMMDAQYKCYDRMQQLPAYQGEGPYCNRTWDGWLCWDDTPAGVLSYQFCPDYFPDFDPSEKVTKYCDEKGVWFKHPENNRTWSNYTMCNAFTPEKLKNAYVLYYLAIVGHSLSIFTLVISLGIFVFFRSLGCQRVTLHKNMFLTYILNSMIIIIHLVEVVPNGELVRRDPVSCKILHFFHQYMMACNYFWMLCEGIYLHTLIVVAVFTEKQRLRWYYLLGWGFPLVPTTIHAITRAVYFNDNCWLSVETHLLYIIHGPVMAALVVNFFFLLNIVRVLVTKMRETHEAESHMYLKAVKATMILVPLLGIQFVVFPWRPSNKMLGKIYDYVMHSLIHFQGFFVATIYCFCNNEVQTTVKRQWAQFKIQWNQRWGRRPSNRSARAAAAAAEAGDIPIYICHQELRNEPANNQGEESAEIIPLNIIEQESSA
Assay: CRE-luciferase assay for calcitonin mimetic activity
Assay type: cell-based
Source text: An alternative assay system (described in WO96/31536 which is incorporated herein in its entirety) involves selection of substances that are able to induce expression of a cyclic AMP response element (CRE)-luciferase reporter gene, as a consequence of elevated cAMP levels, in cells expressing a calcitonin receptor, but not in cells lacking calcitonin receptor expression. Such cells could include, for example, Boris/KS10-3 (expressing hamster calcitonin receptor and a CRE-luciferase reporter gene in baby hamster kidney cells (BHK 570 cells)) or Hollex 1 (expressing human calcitonin receptor and a CRE-luciferase reporter gene in BHK cells, as described in WO96/31536) or KZ10-20-48/pLJ6-4-25, which expresses the human glucagon receptor and a CRE-luciferase reporter gene in BHK cells. The human glucagon receptor is another member of the G-protein-coupled receptor family that transduces signal through adenylate cyclase-mediated elevation of cAMP.
This CRE-luciferase assay measures the end result of a multi-step signal transduction pathway triggered when a calcitonin mimetic stimulates the G-coupled calcitonin receptor. The complexity of this pathway provides multiple mechanisms for induction of luciferase transcription at points that are downstream of the calcitonin receptor, and therefore may not be calcitonin receptor-specific (e.g., forskolin's direct activation of adenylate cyclase). Any response triggered by non-specific inducers is eliminated by counter screening using the calcitonin receptor-negative cell lines described above.
Receptor-positive and -negative cell lines were maintained by serial passage in growth medium (DMEM supplemented with 10% heat-inactivated fetal calf serum (HI-FCS), 2 mM L-glutamine, 1 mM sodium pyruvate, 250 nM MTX, and 1 mg/mL G418). On the day prior to assay, cells were trypsinized, adjusted to 2×10^5 cells/mL in growth medium, plated in opaque white Dynatech Microlite microtiter tissue culture plates at 100 μL/well (2×10^4 cells), and grown overnight to confluence (37° C., 5% CO2 atmosphere)
Test substances were prepared in DMSO at 100 times the final desired assay concentration. Induction was initiated by adding 100 μL/well test substance diluted 1:100 or 1:1000 (only first round screening extracts were diluted 1:100) in assay medium (DMEM supplemented with 10% HI-FCS, 2 mM L-glutamine, 1 mM sodium pyruvate and 20 mM Hepes, pH 7.25). Controls were included on each plate: untreated wells (basal), […] forskolin, and 100 nM human calcitonin. For test substances prepared in DMSO, an equal concentration of DMSO was included in control wells (not to exceed a final assay concentration of 2% DMSO, with a preferred maximum of 1%). Plates were incubated for 3 to 8 hours (4 hours preferred) at 37° C. in an atmosphere of 5% CO2.
Following induction, luciferase activity was measured using a Promega luciferase assay kit (E1500) according to the assay kit protocol. Briefly, assay medium was removed and cells were washed once with phosphate buffered saline (PBS). After the wash, 25 μL of lysis buffer was added to each well, and the plates were incubated for 15 minutes at room temperature. Fifty microliters of Luciferase Assay Substrate (Promega, Corp.) was added to each well and the plates were transferred to a Labsystems Lumiscan microtiter luminometer. The amount of luminescence (relative light units, RLU) was determined by “Fastscan” following a 0.1 second/well integration of signal. Basal (uninduced) luciferase signal was subtracted from all measurements, and the luciferase signal induced by test samples was expressed as a percentage of the signal in the calcitonin and forskolin controls. […]

EC50: 61.1 to 122 µM
Structure (SMILES): COc1cc(CN2CCN(C(=O)Nc3cccc(C(F)(F)F)c3)CC2)ccc1O [Compound 850-0231]
